Patent US20240108602A1, “TREATMENT OF MENTAL DISORDERS” (GH Research Ireland Limited, priority 2022, published 2024)

Key:
human plasma proteins = assay: 5-MeO-DMT binding to human plasma proteins, high throughput dialysis; assay type: in vitro ADME; conditions: 4-hour dialysis
Method: Following evaluation of the equilibration data, plasma protein binding was investigated at nominal concentrations of 0.1, 1 and 10 μM using a 4-hour dialysis time. […]

[1] = test system: Salmonella typhimurium (TA98, TA100, TA1535 and TA1537); assay: Bacterial mutation test, Salmonella typhimurium; assay type: cell-based
Source text: These conditions included treatments at concentrations up to […] (the maximum recommended concentration according to current regulatory guidelines), in the absence and in the presence of a rat liver metabolic activation system (S-9).

COc1ccc2[nH]cc(CCN(C)C)c2c1 [5-MeO-DMT]
Free Fraction in human plasma (human plasma proteins; 0.1 μM): 78.7% | Free Fraction in human plasma (human plasma proteins; 1 μM): 77.3% | Free Fraction in human plasma (human plasma proteins; 10 μM): 87.0% | in vitro genotoxicity assessment [1]: negative | induction of mutation ([1]; up to 5000 μg/plate, with and without S-9): did not induce mutation
